Measurements from US20100226885A1, “METHOD OF TREATING HEPATITIS C PATIENTS” (priority 2007, published 2010).

Experiments:
Hepatitis C = conditions: by week four; VX-950 alone; cited from earlier work
HCV genotype 1 = assay: Example 2: Phase II study of treatment-naïve patients, plasma HCV RNA by Roche COBAS TaqMan HCV/HPS assay; format: in vivo, human; conditions: addition to PegIntron/REBETOL combination therapy, 28 and 48 week regimens
Experimental: The effectiveness of a lead-in period with interferon and ribavirin combination therapy prior to the addition of an HCV protease inhibitor was further evaluated in a study of 595 treatment-naïve patients infected with HCV genotype 1. In this study, boceprevir (compound of Formula 1a) is being evaluated, compared to a control of PegIntron® (peginterferon alfa-2b) at 1.5 mcg/kg QW plus REBETOL® (ribavirin, USP) (800-1400 mg/day) for a treatment period of 48 weeks, in three treatment regimens: • P/R Lead-In +B/P/R: • PegIntron (1.5 mcg/kg QW) in combination with REBETOL (800-1400 mg/day) during a first treatment period of 4 weeks followed by adding boceprevir (800 mg TID) to the combination during a second treatment period of 24 or 44 weeks; thus, the total treatment time with PegIntron and REBETOL was 28 or 48 weeks; • B/P/R: • boceprevir (800 mg TID) in combination with PegIntron (1.5 mcg/kg QW) plus REBETOL (800-1400 mg/day) for a single treatment period of 28 or 48 weeks; and • B/P/Low-dose R: • boceprevir (800 mg TID) in combination with PegIntron (1.5 mcg/kg QW) plus low-dose REBETOL (400-1000 mg/day) for a single treatment period of 48 weeks. […]
Plasma HCV RNA levels were measured using the Roche COBAS TaqMan® HCV/HPS assay (Roche Molecular Systems, Somerville, N.J.).

Row | SMILES | treated patients showing evidence of negative HCV status (Hepatitis C) | SVR compared to the PegIntron/REBETOL control (HCV genotype 1)
1 | CCC[C@H](NC(=O)[C@@H]1[C@H]2CCC[C@H]2CN1C(=O)[C@@H](NC(=O)[C@@H](NC(=O)c1cnccn1)C1CCCCC1)C(C)(C)C)C(=O)C(=O)NC1CC1 [VX-950] | 79% | –
2 | CC(C)(C)NC(=O)N[C@H](C(=O)N1CC2C([C@H]1C(=O)NC(CC1CCC1)C(=O)C(N)=O)C2(C)C)C(C)(C)C (some centres unmarked) [boceprevir] | – | markedly increased SVR
